Structures are written as SMILES.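 Test compounds were applied to cells in 96-well plates for 48 hours at 5 doses. The concentration for full growth arrest is given as TGI.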

Common to all, as to assay: NCI tumour cell line growth inhibition, 48 h
Assay [1] deals with SN12K1 renal.
Assay [2] concerns DMS 273 small cell lung.
Assay [3] has as its system SNB-78 CNS.
Assay [4] relates to DMS 114 small cell lung.
Assay [5] relates to P388/ADR leukemia.
In assay [6] the test system is DLD-1 colon.
For assay [7], the system named is HOP-18 NSCLC.
For assay [8], the system named is LXFL 529 NSCLC.

As for `O=C1OC2CC=CC1C2` (stereo unspecified), the TGI in assay [1], in assay [2], in assay [3], in assay [4], in assay [5] and in assay [6] was above 100 µM throughout. Moreover, in assay [7], the TGI was above 100 µM.
Turning to `C=C1C(=O)OC2CC1CCC1(C)OC1CCC(C)=CCCC2(C)O` (stereo unspecified), the TGI in assay [1] is 11.9 µM; in assay [2], 9.89 µM; in assay [3], 26.3 µM; in assay [4], 9.27 µM; in assay [5], 10.8 µM; in assay [6], 6.12 µM. Also, the TGI in assay [7] was 3.37 µM.
Take `CC(C)(C)OC(=O)NC1CCC(C(C)(C)C)CC1` (stereo unspecified): the TGI in assay [1] was above 100 µM; in assay [2], 99.2 µM; in assay [3] it was above 100 µM; in assay [4], above 100 µM; in assay [5] it was above 100 µM; in assay [6], above 100 µM. In assay [7], this molecule returned a TGI above 100 µM.
With `O=C(Oc1ccc(Cl)cc1[N+](=O)[O-])c1ccccc1`, the TGI in assay [2], in assay [3], in assay [4], in assay [8], in assay [6] and in assay [7] was above 100 µM in each case.
As for `COc1ccc(OC)c(CC(C)N)c1` (stereo unspecified), the TGI in assay [4], in assay [8], in assay [6] and in assay [7] was above 100 µM in each case.

(Values after PubChem BioAssay (NCI).)
